Assay results as given in ChEMBL document CHEMBL1144861, “Synthesis and biological activities of novel 4"-alkylidene avermectin derivatives” (2003).
Converted amounts (≈) assume the structure as drawn.

How the values were obtained:
Artemia salina = assay: In vitro inhibitory activity required against Artemia salina; assay type: functional
Caenorhabditis elegans = assay: In vitro inhibitory activity required against Caenorhabditis elegans.; assay type: functional

For `CO[C@H]1C[C@H](O[Si](C)(C)C(C)(C)C)O[C@@H](C)/C1=C/C#N`, the MIC (Artemia salina) was 0.5 ng/mL (≈ 0.00168 µM) and the MIC (Caenorhabditis elegans) was 0.0005 µg/mL (≈ 0.00168 µM).

`CO[C@H]1C[C@H](O[Si](C)(C)C(C)(C)C)O[C@@H](C)/C1=C/CO` showed an MIC (Artemia salina) of 10 ng/mL (≈ 0.0331 µM) and an MIC (Caenorhabditis elegans) of 0.01 µg/mL (≈ 0.0331 µM).

`CO[C@H]1C[C@H](O[Si](C)(C)C(C)(C)C)O[C@@H](C)/C1=C/CN1CCNCC1` gave an MIC (Artemia salina) of 2 ng/mL (≈ 0.0054 µM) and an MIC (Caenorhabditis elegans) of 0.01 µg/mL (≈ 0.027 µM).

With `C=CCOC(=O)/C=C1/[C@H](C)O[C@@H](O[Si](C)(C)C(C)(C)C)C[C@@H]1OC` the MIC (Artemia salina) was 2 ng/mL (≈ 0.00561 µM) and the MIC (Caenorhabditis elegans) was 0.01 µg/mL (≈ 0.028 µM).

`CO[C@H]1C[C@H](O[Si](C)(C)C(C)(C)C)O[C@@H](C)/C1=C/CN1CCOCC1` gave an MIC (Artemia salina) of 10 ng/mL (≈ 0.0269 µM) and an MIC (Caenorhabditis elegans) of 0.01 µg/mL (≈ 0.0269 µM).

Work on `CO[C@H]1C[C@H](O[Si](C)(C)C(C)(C)C)O[C@@H](C)/C1=C\C#N` yielded an MIC (Artemia salina) of 2 ng/mL (≈ 0.00672 µM) and an MIC (Caenorhabditis elegans) of 0.002 µg/mL (≈ 0.00672 µM).

`CO[C@H]1C[C@H](O[Si](C)(C)C(C)(C)C)O[C@@H](C)/C1=C\COC(=O)c1ccncc1` gave an MIC (Artemia salina) of 10 ng/mL (≈ 0.0245 µM) and an MIC (Caenorhabditis elegans) of 0.05 µg/mL (≈ 0.123 µM).

Work on `CO[C@H]1C[C@H](O[Si](C)(C)C(C)(C)C)O[C@@H](C)/C1=C\C=N\O` yielded an MIC (Artemia salina) of 2 ng/mL (≈ 0.00634 µM) and an MIC (Caenorhabditis elegans) of 0.01 µg/mL (≈ 0.0317 µM).

For `CO[C@H]1C[C@H](O[Si](C)(C)C(C)(C)C)O[C@@H](C)/C1=C/C=O`, the MIC (Artemia salina) was 10 ng/mL (≈ 0.0333 µM) and the MIC (Caenorhabditis elegans) was 0.01 µg/mL (≈ 0.0333 µM).

For `CO[C@H]1C[C@H](O[Si](C)(C)C(C)(C)C)O[C@@H](C)/C1=C/C(=O)N1CCNCC1`, the MIC (Artemia salina) was 2 ng/mL (≈ 0.0052 µM) and the MIC (Caenorhabditis elegans) was 0.01 µg/mL (≈ 0.026 µM).

With `CO[C@H]1C[C@H](O[Si](C)(C)C(C)(C)C)O[C@@H](C)/C1=C\C(=O)O` the MIC (Artemia salina) was 2 ng/mL (≈ 0.00632 µM) and the MIC (Caenorhabditis elegans) was 0.01 µg/mL (≈ 0.0316 µM).

`CC[C@H](C)[C@H]1O[C@]2(C=C[C@@H]1C)C[C@@H]1C[C@@H](C/C=C(\C)[C@@H](O[C@H]3C[C@H](OC)[C@@H](O[C@H]4C[C@H](OC)[C@@H](O)[C@H](C)O4)[C@H](C)O3)[C@@H](C)/C=C/C=C3\CO[C@@H]4[C@H](O)C(C)=C[C@@H](C(=O)O1)[C@]34O)O2` [ABAMECTIN COMPONENT B1A] gave an MIC (Artemia salina) of 0.5 ng/mL (≈ 0.000573 µM) and an MIC (Caenorhabditis elegans) of 0.002 µg/mL (≈ 0.00229 µM).

`CO[C@H]1C[C@H](O[Si](C)(C)C(C)(C)C)O[C@@H](C)/C1=C\COC(=O)c1cccnc1` gave an MIC (Artemia salina) of 2 ng/mL (≈ 0.00491 µM) and an MIC (Caenorhabditis elegans) of 0.01 µg/mL (≈ 0.0245 µM).

`CO[C@H]1C[C@H](O[Si](C)(C)C(C)(C)C)O[C@@H](C)/C1=C/C(=O)N1CCCCC1` gave an MIC (Artemia salina) of 2 ng/mL (≈ 0.00521 µM) and an MIC (Caenorhabditis elegans) of 0.01 µg/mL (≈ 0.0261 µM).

Compound `CO/N=C/C=C1\[C@H](C)O[C@@H](O[Si](C)(C)C(C)(C)C)C[C@@H]1OC` has an MIC (Artemia salina) of 10 ng/mL (≈ 0.0303 µM) and an MIC (Caenorhabditis elegans) of 0.01 µg/mL (≈ 0.0303 µM).

Work on `CO[C@H]1C[C@H](O[Si](C)(C)C(C)(C)C)O[C@@H](C)/C1=C/C(=O)O` yielded an MIC (Artemia salina) of 2 ng/mL (≈ 0.00632 µM) and an MIC (Caenorhabditis elegans) of 0.01 µg/mL (≈ 0.0316 µM).

With `CO[C@H]1C[C@H](O[Si](C)(C)C(C)(C)C)O[C@@H](C)/C1=C/C(=O)N1CCOCC1` the MIC (Artemia salina) was 10 ng/mL (≈ 0.0259 µM) and the MIC (Caenorhabditis elegans) was 0.01 µg/mL (≈ 0.0259 µM).

`CO[C@H]1C[C@H](O[Si](C)(C)C(C)(C)C)O[C@@H](C)/C1=C/CCl` showed an MIC (Artemia salina) of 10 ng/mL (≈ 0.0312 µM) and an MIC (Caenorhabditis elegans) of 0.01 µg/mL (≈ 0.0312 µM).

IVERMECTIN gave an MIC (Artemia salina) of 2 ng/mL and an MIC (Caenorhabditis elegans) of 0.002 µg/mL.

`CO[C@H]1C[C@H](O[Si](C)(C)C(C)(C)C)O[C@@H](C)/C1=C/CN1CCCCC1` gave an MIC (Artemia salina) of 10 ng/mL (≈ 0.0271 µM) and an MIC (Caenorhabditis elegans) of 0.05 µg/mL (≈ 0.135 µM).

Work on `CCOC(=O)/C=C1/[C@H](C)O[C@@H](O[Si](C)(C)C(C)(C)C)C[C@@H]1OC` yielded an MIC (Artemia salina) of 10 ng/mL (≈ 0.029 µM) and an MIC (Caenorhabditis elegans) of 0.01 µg/mL (≈ 0.029 µM).
